This note sets out measurements from US20240218022A1, “ANTI-VISTA MACROCYCLIC PEPTIDES AND COMPOSITIONS” (BRISTOL-MYERS SQUIBB COMPANY, priority 2022, published 2024).

Like-named read-outs stand apart in the source and are kept apart here. Positions of bridges follow the written chain, without caps; N, C: chain ends. Non-standard residues stand in square brackets, D forms with d. Residues, ends and D or L forms follow the SMILES beside them. ξ: configuration not given here. Phe(3-Me) = Cc1cccc(C[C@H](N)C(=O)O)c1; Phe(4-Me) = Cc1ccc(C[C@H](N)C(=O)O)cc1; Ahp(2) = CCCCC[C@H](N)C(=O)O; NMeNle = CCCC[C@H](NC)C(=O)O; Tle = CC(C)(C)[C@H](N)C(=O)O; NHexGly = CCCCCCNCC(=O)O; Nle = CCCC[C@H](N)C(=O)O; Orn = NCCC[C@H](N)C(=O)O; ξS = NC(CO)C(=O)O

This assay addresses T1, mouse VISTA (mVISTA) (Mus musculus, UniProt Q9D659).
T1 construct: expressed in transfected cells; host or cells: Human embryonic kidney 293T cells
T1 sequence (Q9D659 33-308): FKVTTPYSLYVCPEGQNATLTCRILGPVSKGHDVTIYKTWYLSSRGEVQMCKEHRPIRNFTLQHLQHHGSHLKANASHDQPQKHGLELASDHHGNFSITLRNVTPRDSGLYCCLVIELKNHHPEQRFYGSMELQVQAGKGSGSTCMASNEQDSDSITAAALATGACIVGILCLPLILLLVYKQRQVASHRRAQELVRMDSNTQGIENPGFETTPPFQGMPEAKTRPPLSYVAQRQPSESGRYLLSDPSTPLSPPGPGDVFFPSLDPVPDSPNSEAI
Put plainly: Cell-Based Binding High-Content Assay For mVISTA (HC CBA mVISTA). Particulars: read-out: HC CBA mVISTA IC50. In a few lines:
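This high-content binding assay uses HEK293T cells expressing murine VISTA, measuring displacement of 2 nM biotinylated peptide by fluorescent streptavidin imaging. IC50 values come from four-parameter logistic fitting.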

The mark [1] stands for this setting: the 19th table, scaffold drawing 22.

A word on the IC50: it is the midpoint of a concentration-inhibition curve. For `CCCCCCN1CC(=O)N[C@@H](Cc2ccc(O)cc2)C(=O)N[C@@H](CCCC)C(=O)N[C@@H](CC(=O)O)C(=O)N[C@@H](CCCN)C(=O)N(C)[C@@H](CCCC)C(=O)N[C@@H](CCCCC)C(=O)N2CCC[C@H]2C(=O)N[C@@H](C(C)C)C(=O)N[C@@H](CC(=O)O)C(=O)N[C@H](C(=O)NC(CO)C(N)=O)CSCC(=O)N[C@@H](Cc2ccccc2)C(=O)N[C@@H](Cc2cccc(C)c2)C(=O)N[C@@H](CC(=O)O)C1=O` (stereo partly drawn) [compound 1348] ({CH2CO}-F[Phe(3-Me)]D[NHexGly]Y[Nle]D[Orn][NMeNle][Ahp(2)]PVDC[ξS]-NH2; thioether N-14), the IC50 came out at 23.2 nM.
On to `CCCCCCN1CC(=O)N[C@@H](Cc2ccc(O)cc2)C(=O)N[C@@H](CC(C)C)C(=O)N[C@@H](CC(N)=O)C(=O)N[C@@H](CCCNC(=N)N)C(=O)N(C)[C@@H](CCCC)C(=O)N[C@@H](CCCCC)C(=O)N2CCC[C@H]2C(=O)N[C@@H](C(C)(C)C)C(=O)N[C@@H](CO)C(=O)N[C@H](C(=O)NCC(N)=O)CSCC(=O)N[C@@H](Cc2ccccc2)C(=O)N[C@@H](Cc2ccc(C)cc2)C(=O)N[C@@H](CC(=O)O)C1=O` [compound 1349] ({CH2CO}-F[Phe(4-Me)]D[NHexGly]YLNR[NMeNle][Ahp(2)]P[Tle]SCG-NH2; thioether N-14), for which the IC50 was determined as 43.6 nM.
`CCCCCCN1CC(=O)N[C@@H](Cc2ccc(O)cc2)C(=O)N[C@@H](CCCC)C(=O)N[C@@H](CC(=O)O)C(=O)N[C@@H](CCCN)C(=O)N[C@@H](CC(C)C)C(=O)N[C@@H](CCCCC)C(=O)N2CCC[C@H]2C(=O)N[C@@H](C(C)C)C(=O)N[C@@H](CC(=O)O)C(=O)N[C@H](C(=O)N[C@@H](CC(=O)O)C(N)=O)CSCC(=O)N[C@@H](Cc2cccc(C)c2)C(=O)N[C@@H](Cc2c[nH]c3ccccc23)C(=O)N[C@@H](CC(=O)O)C1=O` [compound 1418] ({CH2CO}-[Phe(3-Me)]WD[NHexGly]Y[Nle]D[Orn]L[Ahp(2)]PVDCD-NH2; thioether N-14): the IC50 under setting [1] worked out at 7.6 nM.
For the molecule `CCCCCCN1CC(=O)N[C@@H](Cc2ccc(O)cc2)C(=O)N[C@@H](CCCC)C(=O)N[C@@H](CC(=O)O)C(=O)N[C@@H](CCCNC(=N)N)C(=O)N[C@@H](CC(C)C)C(=O)N[C@@H](CCCCC)C(=O)N2CCC[C@H]2C(=O)N[C@@H](C(C)C)C(=O)N[C@@H](CC(=O)O)C(=O)N[C@H](C(=O)N[C@@H](CC(=O)O)C(N)=O)CSCC(=O)N[C@@H](Cc2cccc(C)c2)C(=O)N[C@@H](Cc2c[nH]c3ccccc23)C(=O)N[C@@H](CC(=O)O)C1=O` [compound 1419] ({CH2CO}-[Phe(3-Me)]WD[NHexGly]Y[Nle]DRL[Ahp(2)]PVDCD-NH2; thioether N-14), the IC50 under setting [1] came out at 8.1 nM.
`CCCCCCN1CC(=O)N[C@@H](Cc2ccc(O)cc2)C(=O)N[C@@H](CCCC)C(=O)N[C@@H](CC(N)=O)C(=O)N[C@@H](CCCNC(=N)N)C(=O)N[C@@H](CC(C)C)C(=O)N[C@@H](CCCCC)C(=O)N2CCC[C@H]2C(=O)N[C@@H](C(C)C)C(=O)N[C@@H](CC(=O)O)C(=O)N[C@H](C(=O)NCC(=O)O)CSCC(=O)N[C@@H](Cc2cccc(C)c2)C(=O)N[C@@H](Cc2c[nH]c3ccccc23)C(=O)N[C@@H](CC(=O)O)C1=O` [compound 1420] ({CH2CO}-[Phe(3-Me)]WD[NHexGly]Y[Nle]NRL[Ahp(2)]PVDCG-OH; thioether N-14): the IC50 under setting [1] was 2 nM.
On the same count and under the same terms, next, `CCCCCCN1CC(=O)N[C@@H](Cc2ccc(O)cc2)C(=O)N[C@@H](CCCC)C(=O)NCC(=O)N[C@@H](CCCNC(=N)N)C(=O)N[C@@H](CC(C)C)C(=O)N[C@@H](CCCCC)C(=O)N2CCC[C@H]2C(=O)N[C@@H](C(C)C)C(=O)N[C@@H](CC(=O)O)C(=O)N[C@H](C(=O)NCC(=O)O)CSCC(=O)N[C@@H](Cc2cccc(C)c2)C(=O)N[C@@H](Cc2c[nH]c3ccccc23)C(=O)N[C@@H](CC(=O)O)C1=O` [compound 1421] ({CH2CO}-[Phe(3-Me)]WD[NHexGly]Y[Nle]GRL[Ahp(2)]PVDCG-OH; thioether N-14): 3.1 nM.
